Experimental data published in publication PMC8222254, “Self-assembly of an anion receptor with metal-dependent kinase inhibition and potent in vitro anti-cancer properties” (Nature Communications, 2021).
Several values for one entry are separate records, joined by “and”; a condition that tells them apart may be missing. Equal entries are not always repeated.

Legend:
Assay in all cases: Kinase inhibition screen, cell-free 33P ATP assay at 10 μM
Assay type in all cases: biochemical
[1] = biological target: T1, 140 purified human kinases (Homo sapiens, UniProt O00141)
T1 sequence (O00141 1-431): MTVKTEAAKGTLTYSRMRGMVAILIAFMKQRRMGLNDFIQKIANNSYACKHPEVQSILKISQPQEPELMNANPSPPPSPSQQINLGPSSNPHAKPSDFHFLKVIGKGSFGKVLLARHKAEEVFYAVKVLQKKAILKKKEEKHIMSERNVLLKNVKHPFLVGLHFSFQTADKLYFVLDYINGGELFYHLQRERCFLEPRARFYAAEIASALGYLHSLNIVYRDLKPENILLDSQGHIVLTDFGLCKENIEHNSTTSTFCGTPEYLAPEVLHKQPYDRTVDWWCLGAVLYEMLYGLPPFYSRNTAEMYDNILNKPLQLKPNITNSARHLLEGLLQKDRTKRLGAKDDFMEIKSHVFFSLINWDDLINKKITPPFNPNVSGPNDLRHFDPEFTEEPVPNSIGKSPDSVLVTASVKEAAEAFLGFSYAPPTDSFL
Outline: (§1)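 Each complex tested in duplicate at 10 μM; cell-free radiometric assay using ^33P ATP on purified enzymes. Hits mapped by HGNC symbol onto the kinome tree.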

[2] = biological target: 140 purified human kinases (Homo sapiens, UniProt P14616); details: IRR
140 purified human kinases (Homo sapiens, UniProt P14616), sequence (P14616 27-1297): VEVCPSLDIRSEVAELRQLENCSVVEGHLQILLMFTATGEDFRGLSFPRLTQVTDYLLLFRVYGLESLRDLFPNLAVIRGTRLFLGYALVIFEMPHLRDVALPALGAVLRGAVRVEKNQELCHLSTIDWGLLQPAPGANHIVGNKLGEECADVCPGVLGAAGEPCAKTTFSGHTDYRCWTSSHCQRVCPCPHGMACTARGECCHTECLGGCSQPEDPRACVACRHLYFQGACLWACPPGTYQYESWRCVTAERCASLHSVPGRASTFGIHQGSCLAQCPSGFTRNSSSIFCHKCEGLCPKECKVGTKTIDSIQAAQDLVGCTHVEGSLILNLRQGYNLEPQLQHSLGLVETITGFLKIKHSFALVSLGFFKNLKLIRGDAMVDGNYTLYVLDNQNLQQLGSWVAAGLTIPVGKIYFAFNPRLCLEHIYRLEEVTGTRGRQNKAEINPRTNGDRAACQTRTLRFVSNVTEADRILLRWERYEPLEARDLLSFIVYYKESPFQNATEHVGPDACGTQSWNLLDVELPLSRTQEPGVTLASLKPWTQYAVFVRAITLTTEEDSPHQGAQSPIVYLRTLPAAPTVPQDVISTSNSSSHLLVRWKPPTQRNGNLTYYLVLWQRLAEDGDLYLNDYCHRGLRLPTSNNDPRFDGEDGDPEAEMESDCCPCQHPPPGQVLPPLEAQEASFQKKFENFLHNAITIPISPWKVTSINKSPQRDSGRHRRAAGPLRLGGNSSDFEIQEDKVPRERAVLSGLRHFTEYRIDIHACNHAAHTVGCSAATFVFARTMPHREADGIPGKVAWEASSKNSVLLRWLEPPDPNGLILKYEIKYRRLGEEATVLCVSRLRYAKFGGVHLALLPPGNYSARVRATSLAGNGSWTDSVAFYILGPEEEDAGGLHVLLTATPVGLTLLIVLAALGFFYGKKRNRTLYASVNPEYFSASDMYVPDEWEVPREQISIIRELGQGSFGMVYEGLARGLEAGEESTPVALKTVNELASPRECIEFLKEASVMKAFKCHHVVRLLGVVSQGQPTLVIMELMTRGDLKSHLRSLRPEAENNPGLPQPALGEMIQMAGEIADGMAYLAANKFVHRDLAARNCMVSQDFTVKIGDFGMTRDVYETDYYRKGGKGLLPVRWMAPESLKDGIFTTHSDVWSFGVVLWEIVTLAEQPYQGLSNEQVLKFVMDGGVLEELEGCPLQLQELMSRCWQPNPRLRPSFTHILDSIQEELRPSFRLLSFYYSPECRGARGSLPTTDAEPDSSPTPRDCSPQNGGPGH
Outline: as §1

[3] = biological target: 140 purified human kinases (Homo sapiens, UniProt P31749); details: PKBa
140 purified human kinases (Homo sapiens, UniProt P31749), sequence (P31749 whole entry): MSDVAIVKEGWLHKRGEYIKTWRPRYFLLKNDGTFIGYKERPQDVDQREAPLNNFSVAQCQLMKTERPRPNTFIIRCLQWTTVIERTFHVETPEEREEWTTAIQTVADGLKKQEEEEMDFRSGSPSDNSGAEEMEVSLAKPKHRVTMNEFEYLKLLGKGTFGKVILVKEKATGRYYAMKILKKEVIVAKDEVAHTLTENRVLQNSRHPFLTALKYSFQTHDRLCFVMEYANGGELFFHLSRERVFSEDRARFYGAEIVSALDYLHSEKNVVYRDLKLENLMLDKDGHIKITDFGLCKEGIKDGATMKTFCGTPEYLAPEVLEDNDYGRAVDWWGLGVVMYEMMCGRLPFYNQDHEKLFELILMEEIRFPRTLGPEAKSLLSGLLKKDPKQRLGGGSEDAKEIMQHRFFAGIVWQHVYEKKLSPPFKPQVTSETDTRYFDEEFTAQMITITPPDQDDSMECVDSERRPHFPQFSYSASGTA
Outline: as §1

[4] = biological target: 140 purified human kinases (Homo sapiens, UniProt P48730); details: CK1δ; for % Activity Run 1 / % Activity Run 2: 10 µM
140 purified human kinases (Homo sapiens, UniProt P48730), sequence (P48730 whole entry): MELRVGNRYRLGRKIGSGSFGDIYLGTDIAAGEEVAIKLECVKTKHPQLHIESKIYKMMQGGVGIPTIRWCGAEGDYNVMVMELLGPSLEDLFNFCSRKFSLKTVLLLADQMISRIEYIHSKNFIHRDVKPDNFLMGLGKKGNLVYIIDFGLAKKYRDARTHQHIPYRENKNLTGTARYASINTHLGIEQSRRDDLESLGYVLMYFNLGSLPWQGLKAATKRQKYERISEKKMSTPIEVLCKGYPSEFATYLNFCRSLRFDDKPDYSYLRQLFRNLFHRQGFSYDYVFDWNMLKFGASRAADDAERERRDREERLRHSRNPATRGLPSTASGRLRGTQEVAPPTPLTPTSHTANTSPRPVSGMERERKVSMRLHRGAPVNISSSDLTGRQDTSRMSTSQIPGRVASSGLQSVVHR
Outline: as §1

[5] = biological target: 140 purified human kinases (Homo sapiens, UniProt P50750)
140 purified human kinases (Homo sapiens, UniProt P50750), sequence (P50750 whole entry): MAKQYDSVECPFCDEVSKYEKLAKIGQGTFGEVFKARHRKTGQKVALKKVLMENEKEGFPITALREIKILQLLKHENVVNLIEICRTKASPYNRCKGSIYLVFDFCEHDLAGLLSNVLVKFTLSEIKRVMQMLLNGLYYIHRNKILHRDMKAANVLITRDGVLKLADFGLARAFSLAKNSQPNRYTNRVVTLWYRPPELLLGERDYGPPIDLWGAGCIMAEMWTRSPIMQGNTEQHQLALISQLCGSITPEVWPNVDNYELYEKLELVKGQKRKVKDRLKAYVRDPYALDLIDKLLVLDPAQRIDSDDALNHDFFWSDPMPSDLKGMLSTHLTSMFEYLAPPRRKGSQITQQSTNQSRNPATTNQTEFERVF
Outline: as §1

[6] = biological target: T2, 140 purified human kinases (Homo sapiens, UniProt P51955); details: NEK2a
T2 sequence (P51955 1-445): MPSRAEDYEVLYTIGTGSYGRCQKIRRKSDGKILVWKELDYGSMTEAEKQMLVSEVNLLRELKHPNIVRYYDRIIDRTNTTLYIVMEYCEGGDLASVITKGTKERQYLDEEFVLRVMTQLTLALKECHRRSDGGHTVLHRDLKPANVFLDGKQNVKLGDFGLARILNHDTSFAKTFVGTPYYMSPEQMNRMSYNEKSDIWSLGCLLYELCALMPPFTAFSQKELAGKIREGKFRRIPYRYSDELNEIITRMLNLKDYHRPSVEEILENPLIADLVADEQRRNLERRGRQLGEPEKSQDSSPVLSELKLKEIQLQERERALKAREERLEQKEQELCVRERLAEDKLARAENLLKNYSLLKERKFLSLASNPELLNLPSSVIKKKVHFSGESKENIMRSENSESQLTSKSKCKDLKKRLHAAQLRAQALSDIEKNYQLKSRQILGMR
Outline: as §1

[7] = biological target: 140 purified human kinases (Homo sapiens, UniProt Q13627); details: DYRK1A
Outline: as §1

For `CC(=O)[O-].CC(=O)[O-].CC(=O)[O-].CC(=O)[O-].CC(=O)[O-].CC(=O)[O-].[Zn+2].[Zn+2].[Zn+2].c1ccc(-c2csc(NCCN(CCNc3nc(-c4ccccn4)cs3)CCNc3nc(-c4ccccn4)cs3)n2)nc1.c1ccc(-c2csc(NCCN(CCNc3nc(-c4ccccn4)cs3)CCNc3nc(-c4ccccn4)cs3)n2)nc1` [[L2Zn3]6+], the “% Inhibition, Mean” value ([1]; SGK1) was 37%, the “% Inhibition, Run 1 / Run 2” value ([1]; SGK1) was 43% and 32% and the mean % activity ([1]; SGK1) was 63%. For the same compound, the “% activity” value ([1]; SGK1, duplicate runs) was 57% and 68%, the “% Inhibition, Mean” value [2] was 6.6% and the “% Inhibition, Run 1 / Run 2” value [2] was 2.4% and 11%. For the same compound, the mean % activity [2] was 93%, the “% activity” value ([2]; duplicate runs) was 98% and 89% and the “% Inhibition, Mean” value [3] was 17%. The mean % activity [3] was 83%, the “% activity” value ([3]; duplicate runs) was 68% and 99% and the “% Activation, Mean value” [4] was 19%. For the same compound, the “% Inhibition, Mean” value [4] was -19%, the mean % activity [4] was 119% and the “% Activity Run 1” value [4] was 131.0%. For the same compound, the “% Activity Run 2” value [4] was 107.0%, the “% activity” value ([4]; duplicate runs) was 131% and 107% and the “% Activation, Mean value” ([5]; CDK9-Cyclin T1) was 6%. The “% Inhibition, Mean” value ([5]; CDK9-Cyclin T1) was -6%, the mean % activity ([5]; CDK9-Cyclin T1) was 106% and the “% activity” value ([5]; CDK9-Cyclin T1, duplicate runs) was 96% and 117%. The “% Inhibition, Mean” value [6] was 30%, the mean % activity [6] was 70% and the “% activity” value ([6]; duplicate runs) was 58% and 82%. For the same compound, the “% Inhibition, Mean” value [7] was 28%, the “% Inhibition, Run 1 / Run 2” value [7] was 34% and 22% and the mean % activity [7] was 72%. The “% activity” value ([7]; duplicate runs) was 67% and 78%.
For `[Cu+2].[Cu+2].[Cu+2].c1ccc(-c2csc(NCCN(CCNc3nc(-c4ccccn4)cs3)CCNc3nc(-c4ccccn4)cs3)n2)nc1.c1ccc(-c2csc(NCCN(CCNc3nc(-c4ccccn4)cs3)CCNc3nc(-c4ccccn4)cs3)n2)nc1` [[L2Cu3]6+], the “% Inhibition Run 1” value ([1]; SGK1) was 85.6%, the “% Inhibition Run 2” value ([1]; SGK1) was 88.5% and the “% Inhibition, Mean” value ([1]; SGK1) was 87%. The mean % activity ([1]; SGK1) was 13%, the “% activity” value ([1]; SGK1, Run 1) was 14.4% and the “% activity” value ([1]; SGK1, Run 2) was 11.5%. The “% Inhibition Run 1” value [2] was 26.1%, the “% Inhibition Run 2” value [2] was 42.9% and the “% Inhibition, Mean” value [2] was 35%. For the same compound, the mean % activity [2] was 66%, the “% activity” value ([2]; Run 1) was 73.9% and the “% activity” value ([2]; Run 2) was 57.1%. The “% Inhibition Run 1” value [3] was 72.1%, the “% Inhibition Run 2” value [3] was 76% and the “% Inhibition, Mean” value [3] was 74%. The mean % activity [3] was 26%, the “% activity” value ([3]; Run 1) was 27.9% and the “% activity” value ([3]; Run 2) was 24%. The “% Activation, Mean value” [4] was 12%, the “% Inhibition Run 1” value [4] was -26.4% and the “% Inhibition Run 2” value [4] was 2.3%. For the same compound, the “% Inhibition, Mean” value [4] was -12%, the mean % activity [4] was 112% and the “% activity” value ([4]; Run 1) was 126.4%. For the same compound, the “% activity” value ([4]; Run 2) was 97.7%, the “% Activity Run 1” value [4] was 126.40% and the “% Activity Run 2” value [4] was 97.70%. The “% Activation, Mean value” ([5]; CDK9-Cyclin T1) was 18%, the “% Inhibition Run 1” value ([5]; CDK9-Cyclin T1) was -1.8% and the “% Inhibition Run 2” value ([5]; CDK9-Cyclin T1) was -34.5%. The “% Inhibition, Mean” value ([5]; CDK9-Cyclin T1) was -18%, the mean % activity ([5]; CDK9-Cyclin T1) was 118% and the “% activity” value ([5]; CDK9-Cyclin T1, Run 1) was 101.8%. The “% activity” value ([5]; CDK9-Cyclin T1, Run 2) was 134.5%, the “% Activity Run 1” value ([5]; CDK9-Cyclin T1, 10 µM) was 101.80% and the “% Activity Run 2” value ([5]; CDK9-Cyclin T1, 10 µM) was 134.50%. The “% Inhibition Run 1” value [6] was 94.1%, the “% Inhibition Run 2” value [6] was 94% and the “% Inhibition, Mean” value [6] was 94%. The mean % activity [6] was 6%, the “% activity” value ([6]; Run 1) was 5.9% and the “% activity” value ([6]; Run 2) was 6%. For the same compound, the “% Activity inhibition Mean” value ([6]; 10 µM) was 94.1%, the “% Activity inhibition Run 1” value ([6]; 10 µM) was 94.1% and the “% Activity inhibition Run 2” value ([6]; 10 µM) was 94%. The “% Activity remaining Run 1” value ([6]; 10 µM) was 5.90%, the “% Activity remaining Run 2” value ([6]; 10 µM) was 6.00% and the “% Inhibition Run 1” value [7] was 18.5%. For the same compound, the “% Inhibition Run 2” value [7] was 12.4%, the “% Inhibition, Mean” value [7] was 15% and the mean % activity [7] was 85%. The “% activity” value ([7]; Run 1) was 81.5% and the “% activity” value ([7]; Run 2) was 87.6%.
